Here are results for 13 compounds from patent US20240262812A1, “N-SUBSTITUTED PHENYLSULFONAMIDE COMPOUND AND USE THEREOF” (Shanghai Leado Pharmatech Co., Ltd., priority 2021, published 2024).

Assay [1] deals with DNBS, TNBS, or DSS induced colitis. Particulars: administration of selective TRPA1 inhibitor; background; cited from earlier work.
For assay [2], the system named is acute gastric mucosal injury. The note with it: background; cited from earlier work.
The target of the next assay is T1, chemokine receptor CCR9 (Homo sapiens, UniProt P51686).
T1 construct: expressed in transfected cells
T1 sequence (P51686 1-369): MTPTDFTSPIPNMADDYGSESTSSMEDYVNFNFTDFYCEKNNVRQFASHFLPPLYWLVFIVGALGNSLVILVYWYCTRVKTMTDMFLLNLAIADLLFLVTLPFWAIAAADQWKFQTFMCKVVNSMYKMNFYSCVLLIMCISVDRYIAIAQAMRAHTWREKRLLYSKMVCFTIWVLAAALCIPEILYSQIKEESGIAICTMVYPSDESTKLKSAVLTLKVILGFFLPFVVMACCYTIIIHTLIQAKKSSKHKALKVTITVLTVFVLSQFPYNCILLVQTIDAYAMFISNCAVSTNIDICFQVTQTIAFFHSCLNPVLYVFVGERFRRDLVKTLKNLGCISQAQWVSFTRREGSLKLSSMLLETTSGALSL
Put plainly: CCR9 antagonistic activity, calcium flow (Fluo-4, FlexStation), CCL25 agonist. In kind it is cell-based. Particulars: antagonistic mode, CCL25 150 nM; for inhibition at 100 µM: read-out: Inhibition rate (%) (100 μM). The source says:
2.1 Main reagents: DMEM culture medium (GIBCO); dimethyl sulfoxide (Sigma); FLUO-4, AM (Invitrogen) 2.2 Main instrument: Flexstation-3 (Molecular Devices) The test concentration gradient of the compound and replicates were set according to the requirement of testing ICSO. All test substances with 8 concentrations were set, with 3 replicates for each concentration. By establishing a cell line that cotransformed the receptor and G16, the receptor being activated can induce the activation of Gα16 protein, thereby activating phospholipase C (PLC) to produce IP3 and DAG. IP3 can bind to the IP3 receptor on the intracellular endoplasmic reticulum and mitochondria, leading to the release of intracellular calcium. Therefore, measuring changes in intracellular calcium can serve as a method for detecting the activation status of target receptor. Fluo-4/AM is a calcium fluorescent probe indicator used to measure calcium ion, as a non-polar lipophilic compound, under the action of cell lipase after entering cells, the AM group dissociates and releases Fluo-4; since Fluo-4 is a polar molecule, it is not easy to pass through lipid bilayers, allowing it to remain in the cell for a long time. Ultimately, the level of G protein activation can be reflected by measuring the excited fluorescence intensity. […] Cells stably expressing the target receptor/Ga16 were planted on a 96 well plate and cultured overnight. 2. The culture solution was removed from the well planted cells, then 40 μL/well of freshly prepared dye was added. The mixture was incubated at a constant temperature in a 37° C. incubator for 40 minutes. 3. The drug to be tested was diluted with calcium buffer and mixed well. 4. The dye was absorbed and discarded. After washed once with freshly prepared calcium buffer, 50 μL of calcium buffer that dissolved the drug to be tested was added for replacement. 5. The FlexStation II instrument was used for detection. Starting from the 15th second, […] dissolved with known agonist was automatically added by the instrument, and finally the fluorescence value at 525 nm was readed. The following formula was used to calculate the cell response rate (% Response) for each sample under each concentration. […] IC50 value was calculated using GraphPad Prism.

Another assay concerns the target T2, mTRPA1 (Mus musculus, UniProt Q8BLA8).
T2 construct: expressed in transfected cells
The assay is described as follows: IonWorks Barracuda (IWB) automated patch clamp, TRPA1 inhibitory activity. The note with it: HEK293 cells stably expressing mTRPA1, current induced by AITC, amplitude at +100 mV; read-out: IC50 (inhibition activity on TRPA1). In kind it is cell-based. A digest of the protocol:
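HEK293 cells stably expressing mouse TRPA1, perforated-patch whole-cell recording (amphotericin B) on IonWorks Barracuda; holding 0 mV, −100 to +100 mV ramp over 300 ms every 10 s. Current evoked by 300 µM AITC, leak-subtracted, amplitude taken at +100 mV; IC50 from fitted dose-effect curves, HC030031 as plate reference.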

For assay [3], the system named is DNBS induced colitis in Wistar rats. The assay is described as follows: DNBS induced colitis model in Wistar rats. Format: in vivo, rat. Set-up: Degree of adhesion (score) / Degree of intestinal infarction (score) / Severity of ulcer (score) / Degree of intestinal wall thickening (score) / Macroscopic colon score: scale not given here. The note with it: oral once a day Day 0 to Day 6, compounds 10 mg/kg, osalazine sodium 300 mg/kg. The source says: The therapeutic effect of compounds prepared in some examples of the present invention on 2,4-dinitrobenzenesulfonic acid (DNBS) induced ulcerative colitis in Wistar rats (corresponding to Crohn's disease) was investigated.
• Animal species and strains: Wistar rats • Administration record: No administration history • Gender and weight: Male, about 150 g • Breeding party/supplier: Shanghai SLAC Laboratory Animal Co., Ltd • Adaptation period: 5 days • Room: Regular Area Rooms • Indoor temperature: 20-26° C. • Indoor relative humidity: 40-70% • Lighting: Fluorescent lighting, 12-hour illumination (08:00-20:00) and 12-hour no illumination • Animal feeding: 2-4 rats per cage (same administration group) • Food: Unlimited access to feed (disinfected by irradiation, Jiangsu Xietong Pharmaceutical Bio-engineering Co., Ltd., China) • Water: Unlimited access to drinking water (treated with reverse osmosis and high-pressure sterilization)
A total of 80 Wistar rats were purchased from Shanghai SLAC Laboratory Animal Co., Ltd, of which 10 were used as backup animals to select animals with suitable weight range included in the groups, in order to control the fluctuation of disease severity caused by weight fluctuations.
BioBook software was used to screen 70 animals for random grouping based on animal weight to ensure that the weight values of each group of animals were similar to reduce bias.
3.1 DNBS powder was dissolved in 30% ethanol with a final concentration of 60 mg/mL.
3.2 Induction of colorectal inflammation: Before the experiment, rats were fasted for 40 hours and subcutaneously injected with 5% glucose saline during the fasting period. On the day 0 of the experiment, fasting rats were anesthetized by intraperitoneal injection of Zoletil and 5 mg/kg Xylazine. G2 group-G7 group, a hose was extended from the anus to the left curvature of the colorectum, and colorectal inflammation in rats was induced with DNBS enema. The normal control group (G1) was treated with 30% ethanol enema using the same method.
3.3. Dosage regimen: After DNBS induction in G1 and G2 groups of animals, solvent was administered. After DNBS induction in G3 group, 300 mg/kg of oxalazine sodium was administered. After DNBS induction in G4 to G7 groups, 10 mg/kg of the compounds of the present invention were administered respectively. Please refer to Table 3 for the administration time, specific administration dosage, and administration route. Starting from day 0 of modeling, the drugs were administered continuously for 7 days, and the animals were euthanized on day 6.
3.4 Testing indicators: After the experiment, all animals were euthanized by inhaling excessive CO2 and dislocation of cervical vertebra. After the abdominal cavity was cut open, the colorectum was taken out and the length of it was immediately measured. Then the colorectum was longitudinally cut open and rinsed clean. The weight of the colorectum and the area of the ulcer were recorded and the whole was photographed. At the same time, the damage to the rat colorectum was evaluated macroscopically according to Table 4.
The health status of animals and their comprehensive response to surgery and medication were observed every day.
The experimental data was calculated as mean±standard error. Statistical analysis was performed using Graphpad Prism, SPSS, or Sigmaplot software. The specific data is presented in the form of charts. P<0.05 is considered to have statistical differences.

T2 sequence (Q8BLA8 whole entry): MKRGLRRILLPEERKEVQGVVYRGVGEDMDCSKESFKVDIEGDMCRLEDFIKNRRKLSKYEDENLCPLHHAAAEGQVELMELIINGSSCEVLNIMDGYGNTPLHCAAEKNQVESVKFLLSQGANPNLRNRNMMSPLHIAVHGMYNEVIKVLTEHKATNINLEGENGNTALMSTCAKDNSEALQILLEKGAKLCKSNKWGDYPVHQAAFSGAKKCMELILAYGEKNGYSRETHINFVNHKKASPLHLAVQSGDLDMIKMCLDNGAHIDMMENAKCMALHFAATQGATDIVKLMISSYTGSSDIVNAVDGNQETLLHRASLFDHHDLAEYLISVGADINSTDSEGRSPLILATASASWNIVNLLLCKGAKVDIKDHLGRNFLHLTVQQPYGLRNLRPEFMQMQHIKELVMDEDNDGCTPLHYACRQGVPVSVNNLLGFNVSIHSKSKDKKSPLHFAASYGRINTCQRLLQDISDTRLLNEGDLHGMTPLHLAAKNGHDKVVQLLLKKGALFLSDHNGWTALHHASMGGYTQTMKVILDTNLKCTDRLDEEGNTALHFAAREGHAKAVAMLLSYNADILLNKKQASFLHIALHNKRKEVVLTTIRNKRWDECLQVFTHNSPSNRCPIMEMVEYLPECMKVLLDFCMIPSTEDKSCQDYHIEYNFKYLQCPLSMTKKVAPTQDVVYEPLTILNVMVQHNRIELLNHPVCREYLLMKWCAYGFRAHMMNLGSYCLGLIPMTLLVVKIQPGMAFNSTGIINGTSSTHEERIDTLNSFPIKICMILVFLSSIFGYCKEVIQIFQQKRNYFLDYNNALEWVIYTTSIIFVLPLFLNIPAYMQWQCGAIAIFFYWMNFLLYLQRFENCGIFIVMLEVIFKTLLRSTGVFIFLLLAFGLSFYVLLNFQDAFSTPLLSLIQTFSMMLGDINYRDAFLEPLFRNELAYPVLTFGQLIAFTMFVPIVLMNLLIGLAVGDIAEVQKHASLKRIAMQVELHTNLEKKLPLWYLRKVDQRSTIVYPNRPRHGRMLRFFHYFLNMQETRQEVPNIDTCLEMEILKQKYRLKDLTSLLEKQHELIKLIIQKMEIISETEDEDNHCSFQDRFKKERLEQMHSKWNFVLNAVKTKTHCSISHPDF

Take `CC(C)c1ccc(NC(=O)Cn2cnc3c2c(=O)n(C)c(=O)n3C)cc1` [HC-030031, HC030031]: the “symptom of colitis in animals” value in assay [1] is on record as “significantly alleviated the symptom of colitis in animals”. For the same compound, the “result in rat model of acute gastric mucosal injury” value in assay [2] was “showed positive result”.
For the compound `CNCc1ccc(-c2ccsc2)c(NS(=O)(=O)c2ccccc2)c1` [IA-49, N-(2-(thiophene-3-yl)-5-((methylamino)methyl)phenyl)benzenesulfonamide], at chemokine receptor CCR9, the inhibition at 100 µM came out at 19% and the IC50 was above 100 µM. Besides, the IC50 on mTRPA1 lay within 1000 to 5000 nM.
Taken in the same sequence, the figures for `CNCc1ccc(N(C)S(=O)(=O)c2ccsc2)c(-c2ccco2)c1` [IB, N-(2-(furan-2-yl)-4-((methylamino)methyl)phenyl)-N-methylthiophene-3-sulfonamide] were 10%, above 100 µM and below 1000 nM.
Consider `NCc1ccc(-c2ccco2)c(NS(=O)(=O)c2ccccc2)c1` [ID-1, N-(5-(aminomethyl)-2-(furan-2-yl)phenyl)benzenesulfonamide], for which, at chemokine receptor CCR9, the inhibition at 100 µM came out at 15% and the IC50 was above 100 µM. In addition, the IC50 on mTRPA1 was below 1000 nM.
As for `NCc1ccc(-c2ccco2)c(NS(=O)(=O)c2ccsc2)c1` [ID-3, N-(5-(aminomethyl)-2-(furan-2-yl)phenyl)thiophene-3-sulfonamide], on chemokine receptor CCR9, the inhibition at 100 µM is 13% and the half-maximal inhibitory concentration (IC50) is above 100 µM. The IC50 at mTRPA1 is below 1000 nM.
`NCc1ccc(NS(=O)(=O)c2ccsc2)c(-c2cc[nH]n2)c1` [ID-7, N-(4-(aminomethyl)-2-(1H-pyrazole-3-yl)phenyl)thiophene-3-sulfonamide]: on chemokine receptor CCR9, the inhibition at 100 µM came to 11% and the IC50 was above 100 µM. The IC50 at mTRPA1 was in the range of 1000 to 5000 nM.
On to `CN(c1ccc(CN)cc1-c1ccco1)S(=O)(=O)c1ccsc1` [IF, N-(4-(aminomethyl)-2-(furan-2-yl)phenyl)-N-methylthiophene-3-sulfonamide], for which, on chemokine receptor CCR9, the inhibition at 100 µM was found to be 22% and the half-inhibitory concentration (IC50) was above 100 µM. The IC50 on mTRPA1 is below 1000 nM.
For `O=S(=O)(Nc1ccc(CN2CC(F)C2)cc1-c1ccco1)c1ccsc1` [IJ-2, N-(4-((3-fluoroazetidin-1-yl)methyl)-2-(furan-2-yl)phenyl)thiophene-3-sulfonamide] the same measures were 30%, above 100 µM and 1000 to 5000 nM.
Taken in the same sequence, the figures for `CNCc1ccc(-n2cccc2)c(NS(=O)(=O)c2ccccc2)c1` [IQ-1, N-(5-((methylamino)methyl)-2-(1H-pyrrole-1-yl)phenyl)benzenesulfonamide] were 22%, above 100 µM and 1000 to 5000 nM.
`CNCc1ccc(-n2cccn2)c(NS(=O)(=O)c2ccccc2)c1` [IQ-2, N-(5-((methylamino)methyl)-2-(1H-pyrazol-1-yl)phenyl)benzenesulfonamide]: on chemokine receptor CCR9, the inhibition at 100 µM came out at 17% and the IC50 is above 100 µM. Besides, at mTRPA1, the half-inhibitory concentration (IC50) is 1000 to 5000 nM.
Taken in the same sequence, the figures for `NCCc1ccc(NS(=O)(=O)c2ccsc2)c(-c2ccco2)c1` [IR, N-(4-(2-aminoethyl)-2-(furan-2-yl)phenyl)thiophene-3-sulfonamide] were 25%, above 100 µM and 1000 to 5000 nM.
Turning to `O=C([O-])c1cc(/N=N/c2ccc(O)c(C(=O)[O-])c2)ccc1O.[Na+].[Na+]` [osalazine sodium, reference compound], in assay [3] (mean score per Table 4), the “Degree of adhesion (score)” value worked out at 0.00, the “Degree of intestinal infarction (score)” value came to 0.00, the “Degree of intestinal wall thickening (score)” value is 0.40 and the “Severity of ulcer (score)” value is given as 1.50. In assay [3] (mean total score), this compound showed a Macroscopic colon score of 1.90. Besides, in assay [3] (mean), the Colon length amounted to 14.33 cm, the Colon weight is 1.41 g, the Ulcer area is on record as 0.30 cm^2 and the Ulcer length was 0.71 cm. For the same compound, the Ulcer width in assay [3] (mean) stood at 0.34 cm.
On to `O=C([O-])c1cc(/N=N/c2ccc(O)c(C(=O)[O-])c2)ccc1O.[Na+].[Na+]` [oxalazine sodium, reference compound], for which, in assay [3] (mean), the Colon weight entry is reported as “significantly reduce” and the Ulcer area entry was “significantly reduce”.
